The values below come from patent US7579356B2, “Thia-tetraazaacenaphthylene kinase inhibitors” (Janssen Pharmaceutica NV, priority 2005, dated 2009).

A value given as a limit tells only on which side of the number the result lay.

The target in one test is T1, HER-2 (Homo sapiens, UniProt P04626).
T1 construct: His6 with thrombin site (N); purchased Proqinase (Freiburg, Germany)
As to the kind of experiment: HER-2 Kinase Assay. The class given is biochemical. To be noted: value in parentheses. In a few lines: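 GST/HIS6-tagged HER-2 aa 679–1255 kinase with biotinylated polyGluTyr (1.5 ng/μL), 1 μM ATP plus γ-33P-ATP, Mg2+/Mn2+, DTT, Hepes pH 7.5; 1 h at 30 °C. Substrate phosphorylation captured on streptavidin scintillation plates after EDTA/PBS washes; values are % inhibition at 1 μM or IC50.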

The target in a further test is T2, EGFR (Homo sapiens, UniProt P00533).
T2 construct: The intracellular portion of EGFR started at nucleotide 2189 (corresponding to amino acid 667) and ended at the termination codon; made in house; host or cells: Sf9 insect cells (baculovirus)
T2 sequence (P00533 669-1210 limits assumed): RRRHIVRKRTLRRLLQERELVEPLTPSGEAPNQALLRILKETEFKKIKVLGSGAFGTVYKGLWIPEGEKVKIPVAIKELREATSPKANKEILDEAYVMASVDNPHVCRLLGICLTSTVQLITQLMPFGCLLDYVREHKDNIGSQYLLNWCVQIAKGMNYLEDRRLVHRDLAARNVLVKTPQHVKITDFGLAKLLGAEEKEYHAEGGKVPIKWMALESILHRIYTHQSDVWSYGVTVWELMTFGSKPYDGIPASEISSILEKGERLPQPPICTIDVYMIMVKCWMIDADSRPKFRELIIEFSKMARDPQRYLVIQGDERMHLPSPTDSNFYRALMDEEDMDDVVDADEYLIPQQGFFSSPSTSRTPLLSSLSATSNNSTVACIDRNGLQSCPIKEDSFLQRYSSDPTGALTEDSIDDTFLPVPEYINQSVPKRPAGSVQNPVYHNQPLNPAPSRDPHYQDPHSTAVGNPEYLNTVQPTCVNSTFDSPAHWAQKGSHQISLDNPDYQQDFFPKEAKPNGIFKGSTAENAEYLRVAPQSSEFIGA
As to the kind of experiment: EGFR Kinase Assay. The class given is biochemical. To be noted: for IC50: GST-EGFR, ATP 5 μM; for inhibition at 2 µM: test concentration of 2 μM, compounds without an IC50, read-out: EGFR inhibition in percent. Summed up:
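GST-fused human EGFR intracellular domain (from aa 667), Sf9-expressed, phosphorylated biotinylated polyGluTyr with 5 μM ATP plus γ-33P ATP in Tris pH 8.0, MgCl2, vanadate, 1 mM DTT, 1 h at 30 °C. Streptavidin Flashplate scintillation read; triplicate 16-point half-log series from 200 uM; IC50 from % inhibition vs log concentration, else % inhibition at 2 μM.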

T1 sequence (P04626 679-1255): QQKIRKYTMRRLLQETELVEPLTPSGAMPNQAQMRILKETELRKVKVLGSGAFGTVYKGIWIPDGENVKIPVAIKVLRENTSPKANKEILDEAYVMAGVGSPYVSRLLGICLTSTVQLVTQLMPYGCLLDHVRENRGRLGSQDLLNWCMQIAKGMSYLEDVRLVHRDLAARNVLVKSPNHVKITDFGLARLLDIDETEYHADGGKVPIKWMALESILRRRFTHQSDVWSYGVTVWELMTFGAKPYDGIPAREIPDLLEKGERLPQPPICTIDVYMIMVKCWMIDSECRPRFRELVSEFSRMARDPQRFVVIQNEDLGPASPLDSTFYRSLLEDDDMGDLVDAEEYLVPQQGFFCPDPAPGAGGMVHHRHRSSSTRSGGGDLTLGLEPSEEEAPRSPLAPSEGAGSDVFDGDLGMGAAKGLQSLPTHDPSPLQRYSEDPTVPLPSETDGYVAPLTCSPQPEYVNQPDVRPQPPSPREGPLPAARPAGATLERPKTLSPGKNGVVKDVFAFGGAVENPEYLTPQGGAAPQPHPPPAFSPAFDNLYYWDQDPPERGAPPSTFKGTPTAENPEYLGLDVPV

Broadly, the IC50 is the concentration that gives 50% inhibition. Take `CN1CCC(NC(=O)c2sc3ncnc4c3c2NC(=O)N4c2ccc(OCc3cccs3)c(Cl)c2)CC1` [Cpd 230, 5-[3-chloro-4-(thiophen-2-ylmethoxy)-phenyl]-4-oxo-4,5-dihydro-3H-1-thia-3,5,6,8-tetraaza-acenaphthylene-2-carboxylic acid (1-methyl-piperidin-4-yl)-amide]: the IC50 at HER-2 is 367 nM; against EGFR, 109 nM.
On to `O=C(Nc1ccc(CN2CCOCC2)c(C(F)(F)F)c1)c1sc2ncnc3c2c1NC(=O)N3c1ccc(Oc2ccccc2)cc1` [Cpd 231, 4-oxo-5-(4-phenoxy-phenyl)-4,5-dihydro-3H-1-thia-3,5,6,8-tetraaza-acenaphthylene-2-carboxylic acid (4-morpholin-4-ylmethyl-3-trifluoromethyl-phenyl)-amide], for which the values for the IC50 at HER-2 and at EGFR were 1050 nM and 314 nM, respectively.
On the same counts, the results for `COc1cc(NC(=O)c2sc3ncnc4c3c2NC(=O)N4c2ccc(Oc3cccnc3)cc2)ccc1CN1CCOCC1` [Cpd 236, 4-oxo-5-[4-(pyridin-3-yloxy)-phenyl]-4,5-dihydro-3H-1-thia-3,5,6,8-tetraaza-acenaphthylene-2-carboxylic acid (3-methoxy-4-morpholin-4-ylmethyl-phenyl)-amide] are 454 nM and 108 nM.
For `O=C(Nc1ccc(CN2CCOCC2)cc1)c1sc2ncnc3c2c1NC(=O)N3c1ccc(Oc2cccnc2)cc1` [Cpd 237, 4-oxo-5-[4-(pyridin-3-yloxy)-phenyl]-4,5-dihydro-3H-1-thia-3,5,6,8-tetraaza-acenaphthylene-2-carboxylic acid (4-morpholin-4-ylmethyl-phenyl)-amide] the same measures were 454 nM and 90 nM.
`O=C(Nc1ccc(CN2CCCCC2)cc1)c1sc2ncnc3c2c1NC(=O)N3c1ccc(Oc2cccnc2)cc1` [Cpd 238, 4-oxo-5-[4-(pyridin-3-yloxy)-phenyl]-4,5-dihydro-3H-1-thia-3,5,6,8-tetraaza-acenaphthylene-2-carboxylic acid (4-piperidin-1-ylmethyl-phenyl)-amide]: the IC50 on HER-2 was 1050 nM; against EGFR it was 132 nM.
As to `O=C(Nc1ccc(CN2CCOCC2)c(OC(F)(F)F)c1)c1sc2ncnc3c2c1NC(=O)N3c1ccc(Oc2ccccc2)cc1` [Cpd 239, 4-oxo-5-(4-phenoxy-phenyl)-4,5-dihydro-3H-1-thia-3,5,6,8-tetraaza-acenaphthylene-2-carboxylic acid (4-morpholin-4-ylmethyl-3-trifluoromethoxy-phenyl)-amide], the concentration for half-maximal inhibition (IC50) on HER-2 was determined as 414 nM; against EGFR it was 114 nM.
Usually inhibition stands for the change of the read-out against control, counted positive when it falls. As to `CCOC(=O)c1sc2ncnc3c2c1NC(=O)N3c1ccc(NC(=O)c2ccccc2)cc1` [Cpd 241, 5-(4-benzoylamino-phenyl)-4-oxo-4,5-dihydro-3H-1-thia-3,5,6,8-tetraaza-acenaphthylene-2-carboxylic acid ethyl ester], at HER-2, the IC50 was above 100000 nM. Further, the inhibition at 2 µM on EGFR was -2%.
With `COc1cc(NC(=O)c2sc3ncnc4c3c2NC(=O)N4c2ccc(Oc3ccccc3)cc2)ccc1CN1CCCCC1` [Cpd 242, 4-oxo-5-(4-phenoxy-phenyl)-4,5-dihydro-3H-1-thia-3,5,6,8-tetraaza-acenaphthylene-2-carboxylic acid (3-methoxy-4-piperidin-1-ylmethyl-phenyl)-amide], the results for the IC50 at HER-2 and at EGFR were 42 nM and 22 nM, respectively.
In the case of `COc1cc(NC(=O)c2sc3ncnc4c3c2NC(=O)N4c2ccc(OCc3ccco3)c(Cl)c2)ccc1CN1CCCCC1` [Cpd 243, 5-[3-chloro-4-(furan-2-ylmethoxy)-phenyl]-4-oxo-4,5-dihydro-3H-1-thia-3,5,6,8-tetraaza-acenaphthylene-2-carboxylic acid (3-methoxy-4-piperidin-1-ylmethyl-phenyl)-amide], the IC50 on HER-2 was 83 nM; at EGFR it was 16 nM.
`O=C(Nc1ccc(CN2CCCCC2)cc1)c1sc2ncnc3c2c1NC(=O)N3c1ccc(OCc2ccco2)c(Cl)c1` [Cpd 244, 5-[3-chloro-4-(furan-2-ylmethoxy)-phenyl]-4-oxo-4,5-dihydro-3H-1-thia-3,5,6,8-tetraaza-acenaphthylene-2-carboxylic acid (4-piperidin-1-ylmethyl-phenyl)-amide]: the IC50 amounted to 85 nM on HER-2 and 23 nM at EGFR.
With `COc1cc(NC(=O)c2sc3ncnc4c3c2NC(=O)N4c2ccc(OCc3ccco3)c(Cl)c2)ccc1CN1CCOCC1` [Cpd 246, 5-[3-chloro-4-(furan-2-ylmethoxy)-phenyl]-4-oxo-4,5-dihydro-3H-1-thia-3,5,6,8-tetraaza-acenaphthylene-2-carboxylic acid (3-methoxy-4-morpholin-4-ylmethyl-phenyl)-amide], the IC50 on HER-2 turned out to be 47 nM; against EGFR, 22 nM.
In the case of `CN1CCC(NC(=O)c2sc3ncnc4c3c2NC(=O)N4c2ccc(OCc3ccco3)c(Cl)c2)CC1` [Cpd 247, 5-[3-chloro-4-(furan-2-ylmethoxy)-phenyl]-4-oxo-4,5-dihydro-3H-1-thia-3,5,6,8-tetraaza-acenaphthylene-2-carboxylic acid (1-methyl-piperidin-4-yl)-amide], the IC50 at HER-2 was 1190 nM; against EGFR it was 249 nM.
As for `O=C(Nc1ccc(N2C(=O)Nc3c(C(=O)Nc4ccc(CN5CCOCC5)cc4)sc4ncnc2c34)cc1)c1ccccc1` [Cpd 248, 5-(4-benzoylamino-phenyl)-4-oxo-4,5-dihydro-3H-1-thia-3,5,6,8-tetraaza-acenaphthylene-2-carboxylic acid (4-morpholin-4-ylmethyl-phenyl)-amide], the IC50 on HER-2 is above 100000 nM. In addition, the inhibition at 2 µM at EGFR was determined as 8%.
Turning to `O=C(Nc1ccc(N2C(=O)Nc3c(C(=O)Nc4ccc(CN5CCCCC5)cc4)sc4ncnc2c34)cc1)c1ccccc1` [Cpd 249, 5-(4-benzoylamino-phenyl)-4-oxo-4,5-dihydro-3H-1-thia-3,5,6,8-tetraaza-acenaphthylene-2-carboxylic acid (4-piperidin-1-ylmethyl-phenyl)-amide], the IC50 on HER-2 is above 100000 nM. Also, the inhibition at 2 µM at EGFR was found to be 9%.
On to `O=C(Nc1ccc(CCN2CCCCC2)cc1)c1sc2ncnc3c2c1NC(=O)N3c1cccc2ccoc12` [Cpd 251, 5-benzofuran-7-yl-4-oxo-4,5-dihydro-3H-1-thia-3,5,6,8-tetraaza-acenaphthylene-2-carboxylic acid [4-(2-piperidin-1-yl-ethyl)-phenyl]-amide], for which the IC50 at HER-2 came out at 285 nM; against EGFR, 141 nM.
On the same counts, the results for `CN1CCN(Cc2ccc(NC(=O)c3sc4ncnc5c4c3NC(=O)N5c3ccc(OCc4cccc(F)c4)c(Cl)c3)cc2)CC1` [Cpd 252, 5-[3-chloro-4-(3-fluoro-benzyloxy)-phenyl]-4-oxo-4,5-dihydro-3H-1-thia-3,5,6,8-tetraaza-acenaphthylene-2-carboxylic acid [4-(4-methyl-piperazin-1-ylmethyl)-phenyl]-amide] are 610 nM and 161 nM.
Consider `CC1COCC(C)N1Cc1ccc(NC(=O)c2sc3ncnc4c3c2NC(=O)N4c2ccc(Oc3ccccc3)cc2)cc1` (centres unmarked) [Cpd 253, 4-oxo-5-(4-phenoxy-phenyl)-4,5-dihydro-3H-1-thia-3,5,6,8-tetraaza-acenaphthylene-2-carboxylic acid [4-(3,5-dimethyl-morpholin-4-ylmethyl)-phenyl]-amide], for which the IC50 came out at 344 nM at HER-2 and 120 nM against EGFR.
Consider `O=C(Nc1ccc(CN2CCC(CO)CC2)cc1)c1sc2ncnc3c2c1NC(=O)N3c1ccc(Oc2ccccc2)cc1` [Cpd 254, 4-oxo-5-(4-phenoxy-phenyl)-4,5-dihydro-3H-1-thia-3,5,6,8-tetraaza-acenaphthylene-2-carboxylic acid [4-(4-hydroxymethyl-piperidin-1-ylmethyl)-phenyl]-amide], for which the IC50 at HER-2 was determined as 68 nM; against EGFR, 26 nM.
Consider `CC1CCN(Cc2ccc(NC(=O)c3sc4ncnc5c4c3NC(=O)N5c3ccc(Oc4ccccc4)cc3)cc2)CC1` [Cpd 255, 4-oxo-5-(4-phenoxy-phenyl)-4,5-dihydro-3H-1-thia-3,5,6,8-tetraaza-acenaphthylene-2-carboxylic acid [4-(4-methyl-piperidin-1-ylmethyl)-phenyl]-amide], for which the results for the 50% inhibitory concentration (IC50) at HER-2 and against EGFR were 24 nM and 41 nM, respectively.
On the same counts, the results for `O=C(Nc1ccc(CN2CCCC(CO)C2)cc1)c1sc2ncnc3c2c1NC(=O)N3c1ccc(Oc2ccccc2)cc1` (centres unmarked) [Cpd 256, 4-oxo-5-(4-phenoxy-phenyl)-4,5-dihydro-3H-1-thia-3,5,6,8-tetraaza-acenaphthylene-2-carboxylic acid [4-(3-hydroxymethyl-piperidin-1-ylmethyl)-phenyl]-amide] are 450 nM and 321 nM.
On the same counts, the results for `CC(C)(C)OC(=O)NC1CCN(Cc2ccc(NC(=O)c3sc4ncnc5c4c3NC(=O)N5c3ccc(Oc4ccccc4)cc3)cc2)CC1` [Cpd 258, [1-(4-{[4-oxo-5-(4-phenoxy-phenyl)-4,5-dihydro-3H-1-thia-3,5,6,8-tetraaza-acenaphthylene-2-carbonyl]-amino}-benzyl)-piperidin-4-yl]-carbamic acid tert-butyl ester] are 58 nM and 53 nM.
For `CN(C)C1CCN(Cc2ccc(NC(=O)c3sc4ncnc5c4c3NC(=O)N5c3ccc(Oc4ccccc4)cc3)cc2)CC1` [Cpd 260, 4-oxo-5-(4-phenoxy-phenyl)-4,5-dihydro-3H-1-thia-3,5,6,8-tetraaza-acenaphthylene-2-carboxylic acid [4-(4-dimethylamino-piperidin-1-ylmethyl)-phenyl]-amide] the same measures were 28 nM and 37 nM.
